Laboratory results from patent publication US20220008298A1, “OLEOGELS IN UV ABSORBER COMPOSITIONS” (BASF SE, priority 2011, published 2022).

Legend:
[1] = interfacial tension of the oil to water; type: physicochemical
Description: (§1) The smaller the interfacial tension of the oil towards water, the more polar it is. This is in line with the values of Log Poctanol/water.

[2] = Log P octanol/water of the oil; type: physicochemical
Description: as §1

Row | Interf. tension to water, γ [1] [mN/m] | Log Poctanol/water [2] | Compound
1 | 14.3 | 3.9 | CCCCOC(=O)CCCCC(=O)OCCCC [Dibutyl Adipate]
2 | 29.1 | 6.8 | CCCCC(CC)COC(=O)OCC(CC)CCCC (stereo not shown) [Diethylhexyl Carbonate]
